Assay results published in ChEMBL document CHEMBL5465560, “Selectivity Literature for EUbOPEN Chemogenomic Library” (2024).
Each block holds one compound with its values, some of them ahead of it.

Legend:
[1] = target: Serine/threonine-protein kinase MRCK alpha (Homo sapiens) (UniProt Q5VT25); settings: at 10 µM
[2] = target: Mitogen-activated protein kinase 10 (Homo sapiens, UniProt P53779); test: Selectivity interaction (Ambit KINOMEscan and KiNATiv profiling in Jurkat cells) EUB0000090b MAPK10; assay type: cell-based; settings: at 1 µM
[3] = target: T1, Serine/threonine-protein kinase ICK (Homo sapiens) (UniProt Q9UPZ9); test: Selectivity interaction (KinomeScan (DiscoverX)) EUB0000655a ICK; settings: at 10 µM
T1 sequence (whole entry): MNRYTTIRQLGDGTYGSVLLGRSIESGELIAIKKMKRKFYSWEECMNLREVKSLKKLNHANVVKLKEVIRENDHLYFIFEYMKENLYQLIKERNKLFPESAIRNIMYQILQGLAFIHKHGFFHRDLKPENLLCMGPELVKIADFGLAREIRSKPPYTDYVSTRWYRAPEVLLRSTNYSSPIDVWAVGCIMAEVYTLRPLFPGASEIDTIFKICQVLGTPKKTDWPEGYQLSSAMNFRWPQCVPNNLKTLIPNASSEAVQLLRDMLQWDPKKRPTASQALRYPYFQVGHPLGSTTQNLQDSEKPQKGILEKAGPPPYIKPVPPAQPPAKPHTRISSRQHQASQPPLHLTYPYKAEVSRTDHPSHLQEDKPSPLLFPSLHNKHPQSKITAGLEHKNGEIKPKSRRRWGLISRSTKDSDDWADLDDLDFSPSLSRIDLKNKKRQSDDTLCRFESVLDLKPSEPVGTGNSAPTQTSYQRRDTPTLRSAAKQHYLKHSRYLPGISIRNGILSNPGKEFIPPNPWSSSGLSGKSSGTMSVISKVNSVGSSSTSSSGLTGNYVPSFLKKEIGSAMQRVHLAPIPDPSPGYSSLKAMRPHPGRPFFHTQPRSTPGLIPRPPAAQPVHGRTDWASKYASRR

[4] = target: T2, Ephrin type-B receptor 6 (Homo sapiens) (UniProt O15197); test: Selectivity interaction (KinomeScan (DiscoverX)) EUB0001619a EPHB6; settings: at 1 µM
T2 sequence (whole entry): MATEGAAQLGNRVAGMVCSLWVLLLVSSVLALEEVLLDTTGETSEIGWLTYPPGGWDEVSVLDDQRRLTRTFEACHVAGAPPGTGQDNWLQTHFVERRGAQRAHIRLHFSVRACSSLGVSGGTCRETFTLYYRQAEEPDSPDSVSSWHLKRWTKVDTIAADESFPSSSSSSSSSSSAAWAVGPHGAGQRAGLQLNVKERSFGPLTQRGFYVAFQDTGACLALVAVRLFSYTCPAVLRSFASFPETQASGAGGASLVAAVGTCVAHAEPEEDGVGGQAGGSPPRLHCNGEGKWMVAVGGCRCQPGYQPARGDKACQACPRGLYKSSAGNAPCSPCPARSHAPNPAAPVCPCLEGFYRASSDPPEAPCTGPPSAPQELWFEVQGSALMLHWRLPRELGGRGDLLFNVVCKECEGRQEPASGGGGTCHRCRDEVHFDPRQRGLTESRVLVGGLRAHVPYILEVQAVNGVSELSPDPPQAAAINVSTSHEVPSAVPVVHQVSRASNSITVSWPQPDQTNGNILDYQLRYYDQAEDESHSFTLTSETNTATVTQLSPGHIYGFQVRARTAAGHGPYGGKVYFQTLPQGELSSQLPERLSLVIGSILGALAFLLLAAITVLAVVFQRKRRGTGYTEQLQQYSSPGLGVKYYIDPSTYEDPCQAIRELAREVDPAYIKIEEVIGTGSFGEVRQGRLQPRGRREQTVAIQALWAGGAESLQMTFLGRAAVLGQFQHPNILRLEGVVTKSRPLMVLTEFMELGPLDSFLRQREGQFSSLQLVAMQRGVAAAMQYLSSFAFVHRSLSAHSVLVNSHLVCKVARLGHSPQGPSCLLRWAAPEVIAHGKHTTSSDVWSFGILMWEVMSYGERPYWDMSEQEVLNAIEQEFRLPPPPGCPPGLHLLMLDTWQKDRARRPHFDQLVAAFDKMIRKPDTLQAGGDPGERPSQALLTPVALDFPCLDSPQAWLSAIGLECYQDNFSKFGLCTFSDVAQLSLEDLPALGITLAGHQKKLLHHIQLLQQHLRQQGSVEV

[5] = target: T3, Tyrosine-protein kinase Tec (Homo sapiens) (UniProt P42680); test: Selectivity interaction (Kinase panel (Invitrogen)) EUB0000639a TEC; settings: at 200 nM
T3 sequence (whole entry): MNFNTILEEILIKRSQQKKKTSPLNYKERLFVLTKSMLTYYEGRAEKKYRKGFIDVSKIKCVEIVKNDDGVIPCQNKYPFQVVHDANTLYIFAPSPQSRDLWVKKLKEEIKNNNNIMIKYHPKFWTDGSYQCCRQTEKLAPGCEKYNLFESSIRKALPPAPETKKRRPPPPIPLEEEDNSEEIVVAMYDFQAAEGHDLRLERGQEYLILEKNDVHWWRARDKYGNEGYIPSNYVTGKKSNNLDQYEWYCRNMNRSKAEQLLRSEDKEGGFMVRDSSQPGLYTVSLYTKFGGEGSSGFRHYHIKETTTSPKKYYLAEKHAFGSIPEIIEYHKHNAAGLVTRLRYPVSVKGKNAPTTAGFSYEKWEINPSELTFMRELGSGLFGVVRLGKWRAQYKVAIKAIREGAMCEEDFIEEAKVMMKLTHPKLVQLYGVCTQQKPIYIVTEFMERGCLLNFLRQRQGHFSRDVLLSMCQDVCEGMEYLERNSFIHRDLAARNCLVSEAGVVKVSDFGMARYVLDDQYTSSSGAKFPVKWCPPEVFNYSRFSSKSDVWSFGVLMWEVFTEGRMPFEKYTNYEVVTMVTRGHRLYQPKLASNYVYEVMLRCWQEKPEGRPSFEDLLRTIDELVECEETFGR

Melanocortin receptor 3 = Melanocortin receptor 3 (Homo sapiens, UniProt P41968); test: Selectivity interaction (Melanocortin MC3 receptor binding assay, human recombinant ) EUB0000877a MC3R
[6] = target: Nucleosome-remodeling factor subunit BPTF (Homo sapiens, UniProt Q12830); test: Selectivity interaction (Human bromodomain panel (DSF assay)) EUB0000233b BPTF
[7] = target: Tyrosine-protein kinase JAK1 (Homo sapiens, UniProt P23458); test: Selectivity interaction (Kinase panel (Z-LYTE Assay)) EUB0001632a JAK1; settings: at 10 µM
Sequence of Tyrosine-protein kinase JAK1 (P23458 whole entry): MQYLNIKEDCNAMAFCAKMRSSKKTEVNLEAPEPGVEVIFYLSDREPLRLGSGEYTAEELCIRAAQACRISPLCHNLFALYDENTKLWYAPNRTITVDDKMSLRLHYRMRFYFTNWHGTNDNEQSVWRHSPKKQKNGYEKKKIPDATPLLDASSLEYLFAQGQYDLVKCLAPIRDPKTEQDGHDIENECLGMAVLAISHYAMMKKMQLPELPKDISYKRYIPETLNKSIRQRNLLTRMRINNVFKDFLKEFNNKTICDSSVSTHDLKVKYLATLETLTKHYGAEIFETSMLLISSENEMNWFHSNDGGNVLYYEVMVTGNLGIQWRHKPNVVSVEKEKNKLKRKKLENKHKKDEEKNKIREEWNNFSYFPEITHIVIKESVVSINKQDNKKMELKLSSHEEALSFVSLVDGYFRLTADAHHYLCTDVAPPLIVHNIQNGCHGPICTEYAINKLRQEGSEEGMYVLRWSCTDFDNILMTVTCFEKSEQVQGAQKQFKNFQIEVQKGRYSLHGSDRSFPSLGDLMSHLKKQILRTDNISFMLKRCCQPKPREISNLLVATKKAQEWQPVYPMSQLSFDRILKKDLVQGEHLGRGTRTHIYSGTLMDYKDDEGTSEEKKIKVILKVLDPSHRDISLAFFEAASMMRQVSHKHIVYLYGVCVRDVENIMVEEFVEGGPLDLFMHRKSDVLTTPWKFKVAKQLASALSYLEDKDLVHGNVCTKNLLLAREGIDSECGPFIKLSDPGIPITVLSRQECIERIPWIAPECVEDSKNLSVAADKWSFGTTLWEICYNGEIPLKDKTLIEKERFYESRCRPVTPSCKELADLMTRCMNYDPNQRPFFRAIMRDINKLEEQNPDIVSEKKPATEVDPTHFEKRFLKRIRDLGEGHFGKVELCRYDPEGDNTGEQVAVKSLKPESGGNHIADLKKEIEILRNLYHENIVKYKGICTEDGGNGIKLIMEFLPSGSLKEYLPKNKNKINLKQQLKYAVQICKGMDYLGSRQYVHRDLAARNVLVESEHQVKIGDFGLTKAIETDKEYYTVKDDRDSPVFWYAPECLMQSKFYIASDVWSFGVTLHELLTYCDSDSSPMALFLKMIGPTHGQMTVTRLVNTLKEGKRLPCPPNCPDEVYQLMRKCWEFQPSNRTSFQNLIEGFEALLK

Sequence of Mitogen-activated protein kinase 10 (P53779 whole entry): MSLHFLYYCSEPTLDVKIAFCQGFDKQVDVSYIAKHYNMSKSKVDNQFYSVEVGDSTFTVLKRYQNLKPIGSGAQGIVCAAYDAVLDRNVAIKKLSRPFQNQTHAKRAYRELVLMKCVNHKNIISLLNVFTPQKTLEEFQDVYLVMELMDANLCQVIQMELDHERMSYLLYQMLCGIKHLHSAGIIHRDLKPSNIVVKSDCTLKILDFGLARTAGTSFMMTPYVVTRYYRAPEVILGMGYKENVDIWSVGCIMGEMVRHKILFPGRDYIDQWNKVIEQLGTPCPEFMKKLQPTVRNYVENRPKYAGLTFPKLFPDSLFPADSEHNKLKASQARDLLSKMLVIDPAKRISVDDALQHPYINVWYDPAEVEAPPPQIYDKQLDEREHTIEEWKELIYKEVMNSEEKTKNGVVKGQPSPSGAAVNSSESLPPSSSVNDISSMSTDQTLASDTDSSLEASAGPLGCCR
Sequence of Melanocortin receptor 3 (P41968 whole entry): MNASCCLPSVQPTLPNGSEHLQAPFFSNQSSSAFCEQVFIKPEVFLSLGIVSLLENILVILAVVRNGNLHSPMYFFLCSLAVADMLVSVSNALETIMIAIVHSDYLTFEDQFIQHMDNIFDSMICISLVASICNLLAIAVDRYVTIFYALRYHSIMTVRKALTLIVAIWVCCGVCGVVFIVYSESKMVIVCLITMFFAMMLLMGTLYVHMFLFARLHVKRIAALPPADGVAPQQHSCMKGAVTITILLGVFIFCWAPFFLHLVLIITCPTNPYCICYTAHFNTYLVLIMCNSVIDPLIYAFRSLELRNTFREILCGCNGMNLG
Sequence of Serine/threonine-protein kinase MRCK alpha (Homo sapiens) (Q5VT25 whole entry): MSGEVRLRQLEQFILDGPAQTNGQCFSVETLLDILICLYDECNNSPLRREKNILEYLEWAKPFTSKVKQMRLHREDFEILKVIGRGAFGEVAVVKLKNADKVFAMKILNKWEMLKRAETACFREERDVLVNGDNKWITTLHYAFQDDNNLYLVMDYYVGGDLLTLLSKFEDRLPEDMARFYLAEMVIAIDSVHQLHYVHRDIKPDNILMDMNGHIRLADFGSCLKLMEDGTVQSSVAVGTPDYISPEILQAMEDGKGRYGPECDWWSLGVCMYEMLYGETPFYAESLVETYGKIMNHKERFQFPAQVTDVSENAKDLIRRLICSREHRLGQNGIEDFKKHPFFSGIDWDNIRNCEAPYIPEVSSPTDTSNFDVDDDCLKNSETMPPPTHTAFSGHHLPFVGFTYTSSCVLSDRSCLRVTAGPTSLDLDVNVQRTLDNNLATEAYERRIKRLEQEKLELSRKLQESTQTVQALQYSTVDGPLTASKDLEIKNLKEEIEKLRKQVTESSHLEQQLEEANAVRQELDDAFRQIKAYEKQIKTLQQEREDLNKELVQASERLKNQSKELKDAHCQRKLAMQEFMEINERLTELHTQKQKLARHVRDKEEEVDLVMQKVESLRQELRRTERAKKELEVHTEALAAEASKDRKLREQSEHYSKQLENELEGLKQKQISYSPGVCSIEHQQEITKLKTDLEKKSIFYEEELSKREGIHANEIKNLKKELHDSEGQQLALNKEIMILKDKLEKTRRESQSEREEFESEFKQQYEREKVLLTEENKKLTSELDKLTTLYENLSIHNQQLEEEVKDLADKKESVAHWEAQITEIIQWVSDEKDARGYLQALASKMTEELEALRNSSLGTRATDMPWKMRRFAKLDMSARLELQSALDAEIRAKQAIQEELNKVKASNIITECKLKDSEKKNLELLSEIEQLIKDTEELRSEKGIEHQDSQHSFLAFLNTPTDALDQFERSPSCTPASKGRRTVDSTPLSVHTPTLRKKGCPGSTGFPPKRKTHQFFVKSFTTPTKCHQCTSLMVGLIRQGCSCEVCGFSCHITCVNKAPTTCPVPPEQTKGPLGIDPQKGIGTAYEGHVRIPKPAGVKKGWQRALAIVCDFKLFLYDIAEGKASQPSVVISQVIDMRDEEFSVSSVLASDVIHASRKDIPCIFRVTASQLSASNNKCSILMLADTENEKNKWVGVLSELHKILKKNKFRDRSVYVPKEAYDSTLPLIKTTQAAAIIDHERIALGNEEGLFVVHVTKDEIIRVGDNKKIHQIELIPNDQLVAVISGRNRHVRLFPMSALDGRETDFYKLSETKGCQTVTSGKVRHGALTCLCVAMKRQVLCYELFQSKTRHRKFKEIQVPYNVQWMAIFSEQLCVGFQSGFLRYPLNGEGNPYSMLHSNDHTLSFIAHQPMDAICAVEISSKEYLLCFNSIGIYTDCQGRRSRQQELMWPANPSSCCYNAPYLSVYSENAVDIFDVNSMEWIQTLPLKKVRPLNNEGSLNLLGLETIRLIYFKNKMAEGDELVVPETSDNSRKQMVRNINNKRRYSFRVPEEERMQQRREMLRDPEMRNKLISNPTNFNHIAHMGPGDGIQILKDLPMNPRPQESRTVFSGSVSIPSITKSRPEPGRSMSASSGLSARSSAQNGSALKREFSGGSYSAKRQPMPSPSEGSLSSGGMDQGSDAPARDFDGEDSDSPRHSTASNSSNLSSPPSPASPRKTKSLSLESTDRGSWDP

Compound: CCN(CC)CCCCNc1ncc2cc(-c3cc(OC)cc(OC)c3)c(NC(=O)NC(C)(C)C)nc2n1
% of control [1]: 100%

Compound: CN(C)C/C=C/C(=O)Nc1ccc(C(=O)N2CCCC(Nc3ncc(Cl)c(-c4c[nH]c5ccccc45)n3)C2)cc1 (stereo not drawn)
% of control [2]: 1%

Compound: CN(C)CCOc1ccc(-c2nc(-c3ccncc3)c(-c3ccc4c(c3)CC/C4=N\O)[nH]2)cc1
% of control [3]: 100%

Compound: N#Cc1cccc(-c2c[nH]c3ncnc(N4CCOCC4)c23)c1
% of control [4]: 86%

Compound: Cn1cc(-n2cnc3c(NCc4nc5cc(Cl)c(Cl)cc5[nH]4)nc(N4CCOCC4)nc32)cn1
% of control [7]: -3.66%

Continued, values first:

% of inhibition [5]: -4.01%
Compound: CC[C@@H]1[C@H](F)C(=O)N[C@@H]1COc1nccc2cc(C(N)=O)c(OC)cc12 [ZIMLOVISERTIB]

IC50 (Melanocortin receptor 3): > 30 µM
Compound: CCC(=O)N1CC[C@H](Nc2ncnc3c2CN(c2cnc(OC)c(C(F)(F)F)c2)CC3)C1 [LENIOLISIB]

dTM [6]: 3.8 K
Compound: CN(C)CCCOc1ccc(-c2cc(NCCCn3cccn3)nc(S(C)(=O)=O)n2)cc1
